Literature values, collected in US5607937A, “Piperazides of substituted phenylalanine derivatives as thrombin inhibitors” (priority 1993, dated 1997).

Tests used:
trypsin = molecular target: T1, trypsin (Bos taurus, UniProt P00760); conditions: literature; cited from earlier work
T1 sequence (P00760 24-246): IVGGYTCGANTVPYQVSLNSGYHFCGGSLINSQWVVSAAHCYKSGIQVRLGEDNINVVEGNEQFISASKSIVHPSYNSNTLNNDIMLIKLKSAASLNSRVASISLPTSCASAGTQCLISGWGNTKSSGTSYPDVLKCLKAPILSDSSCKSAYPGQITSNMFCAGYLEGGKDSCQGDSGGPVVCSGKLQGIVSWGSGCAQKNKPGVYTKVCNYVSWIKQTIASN

thrombin = thrombin (Homo sapiens, UniProt P00734); conditions: literature; cited from earlier work

Structure (SMILES): CC(C)(C)OC(=O)NC(Cc1ccccc1)C(=O)N1CCCC1C(=O)NC(CCCNC(=N)N)B1OC2CC3CC(C3(C)C)C2(C)O1 [Boc-D-Phe-Pro-Boro-Arg-C10 H16]
- trypsin-inhibiting activity in words (trypsin): inhibited in a time-dependent reaction
- thrombin inhibition in words (thrombin): inhibited in a time-dependent reaction
